This passage reports GI50 and TGI results from PubChem BioAssay (NCI).

SMILES strings stand for the structures. Where “and” joins values, the source holds several entries; their conditions need not be identical. Equal values may be shown once.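 Grown in 96-well plates, cells were treated for 48 hours with each compound at five concentrations. Insufficient inhibition: endpoint recorded as highest concentration tested. GI50: concentration for 50% inhibition of growth. TGI marks complete inhibition of growth.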

Some test systems named below: HT29 colon; SF-295 CNS; A498 renal; TK-10 renal; SK-MEL-2 melanoma; CAKI-1 renal; SNB-19 CNS; MCF7 breast; SF-268 CNS; HL-60(TB) leukemia.
What all share (assay): DTP human tumour cell line panel, 48 h

As a reminder, the GI50 is the concentration giving 50% growth inhibition. By TGI is commonly meant the concentration at which net growth stops. As to `CCC(=O)Nc1nnc(Cc2ccc(OC)c(OC)c2)s1`, the GI50 in the assay on HT29 colon, with SF-295 CNS, with A498 renal, in the assay on TK-10 renal, in the assay with SK-MEL-2 melanoma and in the assay on CAKI-1 renal was greater than 100 µM throughout. Also, the GI50 with SNB-19 CNS, in the assay with MCF7 breast, in the assay on SF-268 CNS and in the assay with HL-60(TB) leukemia was greater than 100 µM in each case. Also, the TGI in the assay on HT29 colon, in the assay with SF-295 CNS, in the assay with A498 renal, in the assay on TK-10 renal, in the assay with SK-MEL-2 melanoma and with CAKI-1 renal was greater than 100 µM each time. Besides, the TGI in the assay on SNB-19 CNS, in the assay on MCF7 breast, in the assay with SF-268 CNS and in the assay on HL-60(TB) leukemia was greater than 100 µM each time.

Regarding `Cn1c(I)c(C#C[Si](C)(C)C)c(=O)[nH]c1=O`, the GI50 was 2.41 µM in the assay with HT29 colon; 20 µM with SF-295 CNS; 16.4 µM in the assay on A498 renal; 7.93 µM in the assay with TK-10 renal; 14.4 µM in the assay on SK-MEL-2 melanoma; 2.76 µM in the assay on CAKI-1 renal. Besides, the GI50 was 16 µM in the assay with SNB-19 CNS, 6.2 µM with MCF7 breast, 2.79 µM with SF-268 CNS and 1.9 µM in the assay with HL-60(TB) leukemia. The TGI in the assay with HT29 colon amounted to 5.64 µM; in the assay with SF-295 CNS it was 45.8 µM; with A498 renal, 30.2 µM; in the assay on TK-10 renal it was 22.8 µM; in the assay with SK-MEL-2 melanoma it was 28.3 µM; in the assay with CAKI-1 renal it was 9.58 µM. Moreover, the total growth inhibition concentration (TGI) with SNB-19 CNS was determined as 30.1 µM; in the assay with MCF7 breast it was 21.5 µM; with SF-268 CNS it was 8.85 µM; in the assay on HL-60(TB) leukemia it was 4.42 µM.

Regarding `CCS(=O)(=O)c1ccc(OC)c(Nc2ncc(-c3cccc(F)c3)o2)c1`, the GI50 was greater than 25 µM in the assay with HT29 colon; greater than 25 µM in the assay with SF-295 CNS; 0.34 µM in the assay with A498 renal; greater than 25 µM in the assay with TK-10 renal; greater than 25 µM in the assay with SK-MEL-2 melanoma; greater than 25 µM in the assay on CAKI-1 renal. For the same compound, the GI50 in the assay on SNB-19 CNS, in the assay on MCF7 breast, in the assay on SF-268 CNS and in the assay with HL-60(TB) leukemia was greater than 25 µM throughout. The TGI in the assay on HT29 colon, in the assay on SF-295 CNS, in the assay with A498 renal, with TK-10 renal, with SK-MEL-2 melanoma and in the assay with CAKI-1 renal was greater than 25 µM in each case. The TGI in the assay with SNB-19 CNS, in the assay with MCF7 breast, in the assay with SF-268 CNS and with HL-60(TB) leukemia was greater than 25 µM throughout.

Turning to `COc1cc(C(=O)n2nc(N)c3c(C)cc(C)nc32)cc(OC)c1OC`, the GI50 in the assay with HT29 colon is 3.46 µM; in the assay on SF-295 CNS it was greater than 100 µM; in the assay with A498 renal, greater than 20.8 µM; in the assay on TK-10 renal, greater than 100 µM; in the assay with SK-MEL-2 melanoma, greater than 64.1 µM; with CAKI-1 renal, greater than 100 µM. Further, the GI50 in the assay with SNB-19 CNS was greater than 100 µM; with MCF7 breast, 10.2 µM; in the assay on SF-268 CNS, greater than 100 µM; with HL-60(TB) leukemia, 4.49 µM. The total growth inhibition concentration (TGI) in the assay on HT29 colon, in the assay with SF-295 CNS, in the assay on A498 renal, in the assay with TK-10 renal, in the assay with SK-MEL-2 melanoma and with CAKI-1 renal was greater than 100 µM each time. Besides, the TGI with SNB-19 CNS, with MCF7 breast, with SF-268 CNS and in the assay with HL-60(TB) leukemia was greater than 100 µM each time.

On to `COc1ccc2c(c1)nnc1c3cccnc3[nH]c21`, for which the GI50 with HT29 colon is 0.751 µM and 0.541 µM; in the assay on A498 renal, 8 µM and 2.48 µM; in the assay on TK-10 renal, 4.52 µM; in the assay with SK-MEL-2 melanoma it was 1.96 µM and 3.6 µM; in the assay on CAKI-1 renal, 0.108 µM and 0.594 µM; with SNB-19 CNS, 7.61 µM and 9.99 µM. Also, the GI50 with MCF7 breast is 0.228 µM and 0.209 µM; with SF-268 CNS, 0.733 µM and 0.365 µM; with HL-60(TB) leukemia, 0.158 µM and 0.243 µM. The TGI is 11.3 µM and > 100 µM in the assay on SF-295 CNS; 19.2 µM and 21.3 µM in the assay on A498 renal; 22.6 µM in the assay with TK-10 renal; 18.7 µM and 33.4 µM in the assay with SNB-19 CNS; 0.966 µM and 1.41 µM in the assay on MCF7 breast; 4.7 µM and 5.65 µM in the assay with SF-268 CNS.

As to `COc1cnccc1Nc1nc(-c2nn(Cc3c(F)cc(OCCO)cc3F)c3ccccc23)ncc1OC`, the GI50 with HT29 colon is 2.87 µM; in the assay on SF-295 CNS, 7.26 µM; in the assay with A498 renal it was 12.7 µM; with TK-10 renal, 14.5 µM; with SK-MEL-2 melanoma, 11 µM; in the assay with CAKI-1 renal, 11.9 µM. Also, the GI50 with SNB-19 CNS was 2.23 µM; with MCF7 breast it was 1.65 µM; in the assay on SF-268 CNS, 3.85 µM; in the assay on HL-60(TB) leukemia, 1.42 µM. Also, the TGI in the assay with HT29 colon was 16.4 µM; with SF-295 CNS, 24.9 µM; in the assay on A498 renal it was 50.2 µM; with TK-10 renal it was 27.7 µM; in the assay with SK-MEL-2 melanoma it was 27 µM; in the assay with CAKI-1 renal it was 29.5 µM. In addition, the TGI is 10.5 µM in the assay with SNB-19 CNS, 6.16 µM with MCF7 breast, 15.9 µM with SF-268 CNS and greater than 100 µM in the assay with HL-60(TB) leukemia.

For `COc1ccc(-c2[nH]ncc2Nc2cc(OC)c(OC)c(OC)c2)cc1`, the GI50 in the assay with HT29 colon was 0.482 µM; in the assay on SF-295 CNS, 1.31 µM; in the assay on A498 renal it was 2.98 µM; with TK-10 renal, greater than 32 µM; in the assay on SK-MEL-2 melanoma it was 10.3 µM; in the assay with CAKI-1 renal, 5.64 µM. In addition, the GI50 is 4.86 µM in the assay with SNB-19 CNS, 0.736 µM with MCF7 breast, 6.83 µM in the assay with SF-268 CNS and 0.304 µM in the assay with HL-60(TB) leukemia. Further, the TGI was greater than 100 µM in the assay on HT29 colon; greater than 21.1 µM in the assay on SF-295 CNS; greater than 57.4 µM in the assay on A498 renal; 96.9 µM in the assay on TK-10 renal; greater than 100 µM with SK-MEL-2 melanoma; greater than 100 µM in the assay with CAKI-1 renal. For the same compound, the TGI in the assay on SNB-19 CNS is greater than 100 µM; in the assay on MCF7 breast, greater than 100 µM; with SF-268 CNS it was greater than 100 µM; with HL-60(TB) leukemia it was 1.57 µM.

Turning to `CSc1nc(SC)c2c(C)cn(COCCOC(=O)c3ccccc3)c2n1`, the TGI in the assay with HT29 colon, in the assay on SF-295 CNS, in the assay on A498 renal, in the assay with TK-10 renal, in the assay on SK-MEL-2 melanoma and with CAKI-1 renal was greater than 100 µM each time. For the same compound, the TGI in the assay on SNB-19 CNS, in the assay on MCF7 breast, in the assay with SF-268 CNS and in the assay with HL-60(TB) leukemia was greater than 100 µM each time.
